Experiments:
AT2 (h) = molecular target: T1, AT2 (h) (Homo sapiens, UniProt P50052); assay: CEREP binding assay; details: agonist radioligand, read-out: % Inhibition of Control Specific Binding
T1 construct: purchased Millipore (KinaseProfiler) kinase panel

CCR2 (h) = molecular target: T2, CCR2 (h) (Homo sapiens, UniProt P41597); assay: CEREP binding assay; details: agonist radioligand, read-out: % Inhibition of Control Specific Binding
T2 construct: purchased Millipore (KinaseProfiler) kinase panel

CysLT1 (LTD4) (h) = molecular target: T3, CysLT1 (LTD4) (h) (Homo sapiens, UniProt Q9Y271); assay: CEREP binding assay; details: agonist radioligand, read-out: % Inhibition of Control Specific Binding
T3 construct: purchased Millipore (KinaseProfiler) kinase panel

ERalpha (h) = ERalpha (h) (Homo sapiens, UniProt P03372); assay: CEREP binding assay; details: agonist fluoligand, read-out: % Inhibition of Control Specific Binding
ABL = ABL (Homo sapiens, UniProt P00519); assay: Kinase panel (Millipore); assay type: biochemical; details: 1 µM, ATP at Km
EPHA1 = molecular target: T4, EPHA1 (Homo sapiens, UniProt P21709); assay: Kinase panel (Millipore); assay type: biochemical; details: 1 µM, ATP at Km
T4 construct: purchased Millipore (KinaseProfiler) kinase panel

ALK = molecular target: T5, ALK (Homo sapiens, UniProt Q9UM73); assay: Kinase panel (Millipore); assay type: biochemical; details: 1 µM, ATP at Km
T5 construct: purchased Millipore (KinaseProfiler) kinase panel

CKIT = molecular target: T6, CKIT (Homo sapiens, UniProt P10721); assay: Kinase panel (Millipore); assay type: biochemical; details: 1 µM, ATP at Km
T6 construct: purchased Millipore (KinaseProfiler) kinase panel
T6 sequence (P10721 26-976): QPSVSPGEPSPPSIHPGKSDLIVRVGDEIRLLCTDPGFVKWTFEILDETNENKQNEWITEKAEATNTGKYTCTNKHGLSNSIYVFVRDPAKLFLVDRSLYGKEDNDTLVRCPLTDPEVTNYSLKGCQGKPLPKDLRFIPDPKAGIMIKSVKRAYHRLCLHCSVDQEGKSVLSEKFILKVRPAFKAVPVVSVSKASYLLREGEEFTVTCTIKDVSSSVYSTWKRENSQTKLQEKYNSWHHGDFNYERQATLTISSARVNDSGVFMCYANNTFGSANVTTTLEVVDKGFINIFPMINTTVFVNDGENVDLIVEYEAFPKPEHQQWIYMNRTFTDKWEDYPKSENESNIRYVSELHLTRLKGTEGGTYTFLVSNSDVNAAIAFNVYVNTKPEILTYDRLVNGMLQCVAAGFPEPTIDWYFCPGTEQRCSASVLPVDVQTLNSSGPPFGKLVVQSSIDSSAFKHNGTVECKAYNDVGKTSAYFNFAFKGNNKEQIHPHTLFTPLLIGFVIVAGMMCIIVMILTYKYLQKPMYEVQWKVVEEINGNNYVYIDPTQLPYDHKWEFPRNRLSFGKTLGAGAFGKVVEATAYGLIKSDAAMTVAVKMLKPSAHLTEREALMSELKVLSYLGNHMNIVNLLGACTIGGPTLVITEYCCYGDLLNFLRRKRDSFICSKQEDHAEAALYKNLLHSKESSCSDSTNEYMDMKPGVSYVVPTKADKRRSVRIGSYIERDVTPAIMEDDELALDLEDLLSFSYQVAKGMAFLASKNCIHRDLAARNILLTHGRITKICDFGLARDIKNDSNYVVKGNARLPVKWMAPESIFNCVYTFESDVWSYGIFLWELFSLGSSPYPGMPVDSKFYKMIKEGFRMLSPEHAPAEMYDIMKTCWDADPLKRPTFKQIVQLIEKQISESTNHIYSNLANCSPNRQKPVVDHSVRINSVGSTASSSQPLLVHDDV

MINK = molecular target: T7, MINK (Homo sapiens, UniProt Q8N4C8); assay: Kinase panel (Millipore); assay type: biochemical; details: 1 µM, ATP at Km
T7 construct: purchased Millipore (KinaseProfiler) kinase panel

MLCK = assay: Kinase panel (Millipore); assay type: biochemical; details: 1 µM, ATP at Km
HCK = HCK (Homo sapiens, UniProt P08631); assay: Kinase panel (Millipore); assay type: biochemical; details: 1 µM, ATP at Km
CK1DELTA = CK1DELTA (Homo sapiens, UniProt P48730); assay: Kinase panel (Millipore); assay type: biochemical; details: 1 µM, ATP at Km
CK1DELTA, sequence (P48730 whole entry): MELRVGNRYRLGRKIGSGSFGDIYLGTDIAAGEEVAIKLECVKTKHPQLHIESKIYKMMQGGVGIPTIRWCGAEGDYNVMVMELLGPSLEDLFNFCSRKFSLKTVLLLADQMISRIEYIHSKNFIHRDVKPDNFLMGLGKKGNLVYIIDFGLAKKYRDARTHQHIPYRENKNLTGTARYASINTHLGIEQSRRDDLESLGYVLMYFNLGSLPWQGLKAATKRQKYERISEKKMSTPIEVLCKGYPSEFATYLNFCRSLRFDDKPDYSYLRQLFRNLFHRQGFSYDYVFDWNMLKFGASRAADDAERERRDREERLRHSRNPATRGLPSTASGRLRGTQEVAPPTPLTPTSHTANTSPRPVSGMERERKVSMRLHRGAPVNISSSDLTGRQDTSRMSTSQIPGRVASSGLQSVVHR

NEK6 = molecular target: T8, NEK6 (Homo sapiens, UniProt Q9HC98); assay: Kinase panel (Millipore); assay type: biochemical; details: 1 µM, ATP at Km
T8 construct: purchased Millipore (KinaseProfiler) kinase panel

DRAK1 = molecular target: T9, DRAK1 (Homo sapiens, UniProt Q9UEE5); assay: Kinase panel (Millipore); assay type: biochemical; details: 1 µM, ATP at Km
T9 construct: purchased Millipore (KinaseProfiler) kinase panel

PAK6 = PAK6 (Homo sapiens, UniProt Q9NQU5); assay: Kinase panel (Millipore); assay type: biochemical; details: 1 µM, ATP at Km
PAK6, sequence (Q9NQU5 whole entry): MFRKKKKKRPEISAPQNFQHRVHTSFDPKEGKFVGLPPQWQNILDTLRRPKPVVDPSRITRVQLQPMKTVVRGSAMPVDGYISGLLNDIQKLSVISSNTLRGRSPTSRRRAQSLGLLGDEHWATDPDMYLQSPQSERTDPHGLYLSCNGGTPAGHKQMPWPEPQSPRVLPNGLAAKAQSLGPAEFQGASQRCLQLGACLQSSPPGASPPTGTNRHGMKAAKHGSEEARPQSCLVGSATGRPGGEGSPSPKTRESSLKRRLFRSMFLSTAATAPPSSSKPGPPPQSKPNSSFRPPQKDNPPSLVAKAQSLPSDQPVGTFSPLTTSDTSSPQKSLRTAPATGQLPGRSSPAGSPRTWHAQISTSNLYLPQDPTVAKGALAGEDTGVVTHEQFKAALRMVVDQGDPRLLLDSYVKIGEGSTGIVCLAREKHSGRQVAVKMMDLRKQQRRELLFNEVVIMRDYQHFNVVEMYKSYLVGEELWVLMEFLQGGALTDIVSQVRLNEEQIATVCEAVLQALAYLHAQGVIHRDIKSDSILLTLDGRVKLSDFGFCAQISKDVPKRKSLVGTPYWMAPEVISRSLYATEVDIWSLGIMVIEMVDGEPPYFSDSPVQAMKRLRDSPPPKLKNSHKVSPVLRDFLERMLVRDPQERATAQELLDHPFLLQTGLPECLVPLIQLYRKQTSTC

RSK3 = RSK3 (Homo sapiens, UniProt Q15349); assay: Kinase panel (Millipore); assay type: biochemical; details: 1 µM, ATP at Km
PI3K BETA = PI3K BETA (Homo sapiens, UniProt P42338); assay: Kinase panel (Millipore); assay type: biochemical; details: 1 µM, ATP at Km
HASPIN = molecular target: T10, HASPIN (Homo sapiens, UniProt Q8TF76); assay: Kinase panel (Millipore); assay type: biochemical; details: 1 µM, ATP at Km
T10 construct: purchased Millipore (KinaseProfiler) kinase panel

PKCDELTA = PKCDELTA (Homo sapiens, UniProt Q05655); assay: Kinase panel (Millipore); assay type: biochemical; details: 1 µM, ATP at Km
PKCETA = molecular target: T11, PKCETA (Homo sapiens, UniProt P24723); assay: Kinase panel (Millipore); assay type: biochemical; details: 1 µM, ATP at Km
T11 construct: purchased Millipore (KinaseProfiler) kinase panel

TSSK1 = molecular target: T12, TSSK1 (Homo sapiens, UniProt Q9BXA7); assay: Kinase panel (Millipore); assay type: biochemical; details: 1 µM, ATP at Km
T12 construct: purchased Millipore (KinaseProfiler) kinase panel

PRKCQ = molecular target: T13, PRKCQ (Homo sapiens, UniProt Q04759); assay: Kinase panel (Millipore); assay type: biochemical; details: 1 µM, ATP at Km
T13 construct: purchased Millipore (KinaseProfiler) kinase panel

PKD2 = molecular target: T14, PKD2 (Homo sapiens, UniProt Q9BZL6); assay: Kinase panel (Millipore); assay type: biochemical; details: 1 µM, ATP at Km
T14 construct: purchased Millipore (KinaseProfiler) kinase panel
T14 sequence (Q9BZL6 whole entry): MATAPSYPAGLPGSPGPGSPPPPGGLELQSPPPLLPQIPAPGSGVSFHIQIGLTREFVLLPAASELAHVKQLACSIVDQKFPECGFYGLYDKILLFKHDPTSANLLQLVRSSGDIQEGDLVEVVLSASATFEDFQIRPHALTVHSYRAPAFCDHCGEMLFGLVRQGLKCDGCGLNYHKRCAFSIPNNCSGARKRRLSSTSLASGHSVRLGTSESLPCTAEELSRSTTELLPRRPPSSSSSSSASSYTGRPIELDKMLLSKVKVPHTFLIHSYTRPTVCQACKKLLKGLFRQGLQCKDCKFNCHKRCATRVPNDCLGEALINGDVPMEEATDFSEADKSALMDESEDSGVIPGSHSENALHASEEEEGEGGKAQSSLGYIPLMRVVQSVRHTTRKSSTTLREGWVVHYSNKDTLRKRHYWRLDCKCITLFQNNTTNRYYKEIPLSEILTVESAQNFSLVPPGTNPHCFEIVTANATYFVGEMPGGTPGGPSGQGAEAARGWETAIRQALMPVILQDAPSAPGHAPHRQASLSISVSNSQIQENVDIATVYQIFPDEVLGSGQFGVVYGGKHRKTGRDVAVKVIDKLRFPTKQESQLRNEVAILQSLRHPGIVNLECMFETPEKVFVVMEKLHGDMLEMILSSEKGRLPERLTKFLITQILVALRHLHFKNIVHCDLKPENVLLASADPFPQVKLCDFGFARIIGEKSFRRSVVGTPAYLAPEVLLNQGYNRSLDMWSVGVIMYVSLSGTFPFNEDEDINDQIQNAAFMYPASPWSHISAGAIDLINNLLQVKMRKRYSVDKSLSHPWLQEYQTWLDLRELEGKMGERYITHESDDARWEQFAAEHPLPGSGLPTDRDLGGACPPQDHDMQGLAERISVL

PRAK = molecular target: T15, PRAK (Homo sapiens, UniProt Q8IW41); assay: Kinase panel (Millipore); assay type: biochemical; details: 1 µM, ATP at Km
T15 construct: purchased Millipore (KinaseProfiler) kinase panel

CK1GAMMA1 = CK1GAMMA1 (Homo sapiens, UniProt Q9HCP0); assay: Kinase panel (Millipore); assay type: biochemical; details: 1 µM, ATP at Km
CK1GAMMA2 = CK1GAMMA2 (Homo sapiens, UniProt P78368); assay: Kinase panel (Millipore); assay type: biochemical; details: 1 µM, ATP at Km
CK1GAMMA2, sequence (P78368 whole entry): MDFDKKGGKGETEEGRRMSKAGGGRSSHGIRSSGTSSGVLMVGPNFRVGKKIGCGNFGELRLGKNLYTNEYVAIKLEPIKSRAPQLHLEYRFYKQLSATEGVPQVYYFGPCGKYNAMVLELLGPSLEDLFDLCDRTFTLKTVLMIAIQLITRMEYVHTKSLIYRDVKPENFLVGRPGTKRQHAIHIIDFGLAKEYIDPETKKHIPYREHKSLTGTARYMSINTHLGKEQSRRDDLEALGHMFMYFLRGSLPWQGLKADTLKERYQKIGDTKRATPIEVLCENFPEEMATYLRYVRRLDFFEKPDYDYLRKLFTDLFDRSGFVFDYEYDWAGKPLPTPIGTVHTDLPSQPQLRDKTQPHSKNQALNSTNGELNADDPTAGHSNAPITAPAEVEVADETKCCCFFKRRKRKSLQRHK

CK1GAMMA3 = CK1GAMMA3 (Homo sapiens, UniProt Q9Y6M4); assay: Kinase panel (Millipore); assay type: biochemical; details: 1 µM, ATP at Km
ULK2 = molecular target: T16, ULK2 (Homo sapiens, UniProt Q8IYT8); assay: Kinase panel (Millipore); assay type: biochemical; details: 1 µM, ATP at Km
T16 construct: purchased Millipore (KinaseProfiler) kinase panel

MELK = molecular target: T17, MELK (Homo sapiens, UniProt Q14680); assay: Kinase panel (Millipore); assay type: biochemical; details: 1 µM, ATP at Km
T17 construct: purchased Millipore (KinaseProfiler) kinase panel

[1] = male, Wistar, rat, in vivo
[2] = test system: STAT1^SER727 phosphorylation; details: 30 mg/kg q.d. oral
TNF-alpha (h) = details: 10 µM, agonist radioligand
PCP = details: 10 µM, antagonist radioligand
[3] = test system: Ca2+ channel (L, dihydropyridine site); details: 10 µM, antagonist radioligand
CDK1/CYCLINB = CDK1/CYCLINB (Homo sapiens, UniProt P06493); details: 1 µM, ATP at Km
FLT3(D835Y) = FLT3(D835Y) (Homo sapiens, UniProt P36888, D835Y); details: 1 µM, ATP at Km
CDK5/P35 = CDK5/P35 (Homo sapiens, UniProt Q00535); details: 1 µM, ATP at Km
CDK5/P35, sequence (Q00535 whole entry): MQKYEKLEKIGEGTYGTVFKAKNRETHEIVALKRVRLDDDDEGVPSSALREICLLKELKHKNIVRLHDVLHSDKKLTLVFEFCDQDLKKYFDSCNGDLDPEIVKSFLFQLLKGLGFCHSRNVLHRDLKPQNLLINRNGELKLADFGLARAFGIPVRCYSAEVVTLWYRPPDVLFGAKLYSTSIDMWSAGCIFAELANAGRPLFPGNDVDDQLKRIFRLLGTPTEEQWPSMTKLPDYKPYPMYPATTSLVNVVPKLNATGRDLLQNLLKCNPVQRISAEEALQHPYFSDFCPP
CDK5/P35, sequence (Q15078 whole entry partner): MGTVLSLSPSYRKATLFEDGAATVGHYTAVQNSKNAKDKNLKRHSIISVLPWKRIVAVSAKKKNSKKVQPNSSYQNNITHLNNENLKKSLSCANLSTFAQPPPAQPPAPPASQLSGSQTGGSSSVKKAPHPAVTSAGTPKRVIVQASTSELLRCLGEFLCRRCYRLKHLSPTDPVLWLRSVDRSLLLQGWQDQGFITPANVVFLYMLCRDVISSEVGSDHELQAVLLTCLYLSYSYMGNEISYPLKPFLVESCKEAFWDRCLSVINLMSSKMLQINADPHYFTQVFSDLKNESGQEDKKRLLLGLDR

SRC(T341M) = SRC(T341M) (Homo sapiens, UniProt P12931, T341M); details: 1 µM, ATP at Km
RET(V804M) = RET(V804M) (Homo sapiens, UniProt P07949, V804M); details: 1 µM, ATP at Km
CKIT(D816H) = CKIT(D816H) (Homo sapiens, UniProt P10721, D816H); details: 1 µM, ATP at Km
CKIT(D816H), sequence (P10721 544-976 D816H limits assumed): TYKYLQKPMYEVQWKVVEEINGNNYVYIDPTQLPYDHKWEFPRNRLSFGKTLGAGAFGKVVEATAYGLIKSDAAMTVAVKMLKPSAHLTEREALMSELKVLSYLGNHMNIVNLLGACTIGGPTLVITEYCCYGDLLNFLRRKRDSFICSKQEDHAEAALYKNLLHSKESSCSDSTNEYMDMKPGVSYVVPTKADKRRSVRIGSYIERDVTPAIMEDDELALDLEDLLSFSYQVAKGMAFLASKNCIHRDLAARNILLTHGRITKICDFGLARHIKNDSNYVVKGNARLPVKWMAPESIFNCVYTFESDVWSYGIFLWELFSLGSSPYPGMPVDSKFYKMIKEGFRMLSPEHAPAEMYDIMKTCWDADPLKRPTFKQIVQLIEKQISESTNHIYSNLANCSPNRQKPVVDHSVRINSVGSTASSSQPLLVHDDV

EGFR(T790M) = EGFR(T790M) (Homo sapiens, UniProt P00533, T790M); details: 1 µM, ATP at Km
cMET (Y1248H) = cMET (Y1248H) (Homo sapiens, UniProt P08581, Y1230H); details: 1 µM, ATP at Km
alpha 1B (h) = alpha 1B (h) (Homo sapiens, UniProt P35368); assay: biochemical; details: read-out: % Inhibition of Control Specific Binding
alpha 1B (h), sequence (P35368 whole entry): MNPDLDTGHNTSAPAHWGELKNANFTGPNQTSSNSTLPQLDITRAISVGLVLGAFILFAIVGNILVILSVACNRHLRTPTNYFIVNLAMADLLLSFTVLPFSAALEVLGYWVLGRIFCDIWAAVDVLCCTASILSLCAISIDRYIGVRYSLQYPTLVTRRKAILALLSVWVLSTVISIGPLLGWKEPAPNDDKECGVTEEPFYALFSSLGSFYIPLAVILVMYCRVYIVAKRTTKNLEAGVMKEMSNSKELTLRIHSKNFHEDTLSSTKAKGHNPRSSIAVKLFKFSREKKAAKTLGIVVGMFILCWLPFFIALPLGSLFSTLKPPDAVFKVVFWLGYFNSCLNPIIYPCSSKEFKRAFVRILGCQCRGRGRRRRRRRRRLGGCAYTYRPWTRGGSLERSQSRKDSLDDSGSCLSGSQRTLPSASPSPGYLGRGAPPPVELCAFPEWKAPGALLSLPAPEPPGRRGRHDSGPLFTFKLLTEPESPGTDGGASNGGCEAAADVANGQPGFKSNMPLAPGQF

With `Cn1ncc2cc(-c3cnc(N)c(Cl)c3N3CCC4(CCNC4=O)CC3)ccc21` [Compound 109, 8-(2-Amino-3-chloro-5-(1-methyl-1H-indazol-5-yl)pyridin-4-yl)-2,8-diazaspiro[4.5]decan-1-one] the inhibition at 10 µM (AT2 (h)) was 6%, the inhibition at 10 µM (CCR2 (h)) was -9% and the inhibition at 10 µM (CysLT1 (LTD4) (h)) was 12%. The inhibition at 10 µM (ERalpha (h)) was 0%, the “% effect” value (ABL) was -15% and the “% effect” value (EPHA1) was 4%. The “% effect” value (ALK) was 4%, the “% effect” value (CKIT) was -5% and the “% effect” value (MINK) was 22%. For the same compound, the “% effect” value (MLCK) was 3%, the “% effect” value (HCK) was -4% and the “% effect” value (CK1DELTA) was 18%. For the same compound, the “% effect” value (NEK6) was 4%, the “% effect” value (DRAK1) was 1% and the “% effect” value (PAK6) was 2%. The “% effect” value (RSK3) was -15%, the “% effect” value (PI3K BETA) was 2% and the “% effect” value (HASPIN) was 26%. For the same compound, the “% effect” value (PKCDELTA) was 6%, the “% effect” value (PKCETA) was 6% and the “% effect” value (TSSK1) was -7%. For the same compound, the “% effect” value (PRKCQ) was -13%, the “% effect” value (PKD2) was -1% and the “% effect” value (PRAK) was 13%. For the same compound, the “% effect” value (CK1GAMMA1) was -5%, the “% effect” value (CK1GAMMA2) was 5% and the “% effect” value (CK1GAMMA3) was -7%. The “% effect” value (ULK2) was 12%, the “% effect” value (MELK) was 3% and the LBF [1] was 34%. The “duration of reduced STAT1 SER727 phosphorylation after the last dose” value [2] was “more than 6 h”, the “% Inhibition of Control Specific Binding” value (TNF-alpha (h)) was -8% and the “% Inhibition of Control Specific Binding” value (PCP) was -1%. For the same compound, the “% Inhibition of Control Specific Binding” value [3] was -16%, the “% effect” value (CDK1/CYCLINB) was -12% and the “% effect” value (FLT3(D835Y)) was 21%. The “% effect” value (CDK5/P35) was 1%, the “% effect” value (SRC(T341M)) was -8% and the “% effect” value (RET(V804M)) was 6%. The “% effect” value (CKIT(D816H)) was 1%, the “% effect” value (EGFR(T790M)) was 11% and the “% effect” value (cMET (Y1248H)) was -5%. For the same compound, the inhibition at 10 µM (alpha 1B (h)) was 15%.

Source: PMC5362750, “Discovery of Potent, Selective, and Orally Bioavailable Small-Molecule Modulators of the Mediator Complex-Associated Kinases CDK8 and CDK19” (Journal of Medicinal Chemistry, 2016)
